Test results from patent US20030206946A1, “Methods for therapy of connective tissue disease” (priority 2002, published 2003).

Tests used:
[1] = system: p16 in the synovium of connective tissue disease; assay: p16 immunohistochemistry of synovium in adjuvant arthritis; format: in vivo, Long Evans rats; conditions: treated vs vehicle group
From the text: FIGS. 8G-[…] are from lower magnification to higher magnification showing the severe synovial hyperplasia and panus formation in connective tissue disease deteriorating the cartilage and bone of joints (left panel: H&E stain). In contrast, there is no p16 staining in the invasive synovium of the vehicle group when compared to the synovium in the treated group (right panel: immunohistochemistry).

[2] = system: p16 and p21 in synovial fibroblasts from adjuvant arthritis; assay: Western blot of p16 and p21 in synovial fibroblasts; format: cell-based, rats; conditions: phenylbutyrate 2 mM, trichostatin A 200 nM; 12 h
[3] = system: acetylated histone H3 in synovial fibroblasts from adjuvant arthritis; assay: Accumulation of acetylated histones in synovial fibroblasts (western blot, immunofluorescence with anti-acetylated H3 antibody); format: cell-based, rats; conditions: phenylbutyrate 2 mM, trichostatin A 200 nM; 6 h for immunofluorescence
Procedure: At day 10, synovial samples were obtained from the established adjuvant arthritis rats. The collected synovial tissues were digested with 5 mg/ml collagenase (sigma) and 1.5 mg/ml DNase (sigma), and were passed through a wire mesh to prepare isolated cells. Cells (0.5×10^6) were placed in 10-cm dishes with 10 ml RPMI 1640 medium (Gibco) supplemented with 10% fetal calf serum, 2 mM L-glutamine, 50 U/ml penicillin and […] streptomycin. Cells were detached with trypsin-EDTA solution and passed for subculture when 90% confluency was reached. The synovial cells used were of passage 5. Proliferating synovial fibroblasts from adjuvant arthritis were treated with phenylbutyrate or trichostatin A, and proliferation was determined by incorporation of ^3H-thymidine, which was present during last 24 hours of culture. 4-phenylbutyrate (Merck) dissolved in sterile water with NaOH and adjusted to pH 7.2, or sodium phenylbutyrate (Triple Crown, U.S.A) dissolved in sterile water or trichostatin A (sigma) dissolved in ethanol were used. […] Hyperacetylated histones were detected by use of the antibody that specifically recognizes the hyperacetylated form of histone H3 (upstate biotechnology). […] The results were expressed as percentage value relative to the control culture (no drug addition). […]

[4] = system: TNF-α in the connective tissues of connective tissue disease; assay: TNF-α immunohistochemistry of connective tissues in adjuvant arthritis; format: in vivo, Long Evans rats; conditions: treated vs vehicle group
[5] = system: synovial fibroblasts from adjuvant arthritis; assay: Proliferation of synovial fibroblasts by 3H-thymidine incorporation; format: cell-based, rats; conditions: 3H-thymidine present during last 24 hours of culture; relative to control culture
Procedure: At day 10, synovial samples were obtained from the established adjuvant arthritis rats. The collected synovial tissues were digested with 5 mg/ml collagenase (sigma) and 1.5 mg/ml DNase (sigma), and were passed through a wire mesh to prepare isolated cells. Cells (0.5×10^6) were placed in 10-cm dishes with 10 ml RPMI 1640 medium (Gibco) supplemented with 10% fetal calf serum, 2 mM L-glutamine, 50 U/ml penicillin and […] streptomycin. Cells were detached with trypsin-EDTA solution and passed for subculture when 90% confluency was reached. The synovial cells used were of passage 5. Proliferating synovial fibroblasts from adjuvant arthritis were treated with phenylbutyrate or trichostatin A, and proliferation was determined by incorporation of ^3H-thymidine, which was present during last 24 hours of culture. 4-phenylbutyrate (Merck) dissolved in sterile water with NaOH and adjusted to pH 7.2, or sodium phenylbutyrate (Triple Crown, U.S.A) dissolved in sterile water or trichostatin A (sigma) dissolved in ethanol were used. […] Hyperacetylated histones were detected by use of the antibody that specifically recognizes the hyperacetylated form of histone H3 (upstate biotechnology).

[6] = system: adjuvant arthritis, left hind paw (without CFA); assay: Adjuvant arthritis (CFA), Delayed Phase, contralateral left hind paw volume; format: in vivo, Long Evans rats; conditions: for systematic inhibition effect in delayed phase (left paw), in words: summary of Table 2
Procedure: (§1) A well-ground suspension of killed Mycobacterium tuberculosis (DIFCO, USA; 0.3 mg in 0.1 ml of light mineral oil; Complete Freund's Adjuvant, CFA) was administered into the subplantar region of the right hind paw immediately after first dosing on first day (denoted day 1). Hind paw volume was measured by Plethsmometer (Cat. No. 7150, UGO BASILE, Italy) and Water cell (25 mm diameter, Cat. No. 7157, UGO BASILE, Italy) on day 0 (before CFA treated), 1, 5, 10, and 15 after CFA of right paw (with CFA), and day 0, 14, and 18 of left paw (without CFA); rats were weighed just before first dose and 1 hour after final dose. Right hind paw volume (Acute Phase) was measured 4 hours after CFA treated (denoted as day 1) and day 5, day 10 and day 15 after CFA. The contralateral left hind paw volume (Delayed Phase) was measured at day 14 and day 18. The inflammatory activity in this model was denoted by values calculated during the Acute Phase as well as the Delayed Phase.
(§2) The animal model for connective tissue disease was established according to the report by Winter C A, et al., Arthritis Rheum. 1966, 9:394-404. Groups of 5 Long Evans rats weighing 150±20 g were used. The 10% of phenylbutyrate cream and 1% of trichostatin A ointment at a dose of 200 mg/paw and 10 mg/paw, respectively, were applied topically twice daily for 18 consecutive days. A well-ground suspension of killed Mycobacterium tuberculosis (DIFCO, USA; 0.3 mg in 0.1 ml of light mineral oil; Complete Freund's Adjuvant, CFA) was administered into the subplantar region of the right hind paw immediately after first dosing on first day (denoted day 1). Hind paw volume was measured by Plethsmometer (Cat. No. 7150, UGO BASILE, Italy) and Water cell (25 mm diameter, Cat. No. 7157, UGO BASILE, Italy) on day 0 (before CFA treated), 1, 5, 10, and 15 after CFA of right paw (with CFA), and day 0, 14, and 18 of left paw (without CFA); rats were weighed just before first dose and 1 hour after final dose. Anti-inflammatory activity in this model was denoted by values calculated during the Acute Phase (the right hind paw volume) as well as the Delayed Phase (the contralateral left hind paw volume). For CFA-injected vehicle control rats, animals were also weighed on day 0 and day 18; CFA-injected vehicle control animals generally gain between 20 to 40 g body weight over this time period. A 30% or more reduction in paw volume relative to vehicle treated controls was considered significant.

[7] = system: inflammation of skin, joints and soft tissues in connective tissue disease; assay: Gross views and histology of paw joints, skin and soft tissues in adjuvant arthritis; format: in vivo, Long Evans rats; conditions: topical 10% phenylbutyrate cream or 1% trichostatin A ointment vs vehicle
Procedure: as §2, with “A 30% or more reduction in paw volume relative to vehicle treated controls was considered significant.” left out

[8] = system: histone deacetylases; conditions: background statement; cited from earlier work
[9] = system: adjuvant arthritis, right hind paw (with CFA); assay: Adjuvant arthritis (CFA), Acute Phase, right hind paw volume; format: in vivo, Long Evans rats
Procedure: as §1, §2

[10] = Acute Phase, right hind paw volume, topical twice daily x 18 days or PO x 5, parentheses mark 30% or more

SMILES | p16 expression in synovium [1] | upregulation of p16 and p21, cell cycle inhibitors [2] | accumulation of acetylated histones [3] | TNF-α staining in connective tissues [4] | growth inhibition of synovial fibroblasts [5] | systematic inhibition effect in delayed phase (left paw), in words [6] | suppression of connective tissue disease (swelling, pannus, synovial hyperplasia, lymphocyte infiltration), in words [7] | concentration range of histone deacetylase inhibition [8] | % Inhibition relative to vehicle treated, Day (5-0) [9, 10] | % Inhibition relative to vehicle treated, Day (10-0) [9, 10] | % Inhibition relative to vehicle treated, Day (15-0) [9, 10] | % Inhibition relative to vehicle treated, Day (1-0) ([9]; Acute Phase, unilateral ankle joint/right hind paw volume, topical twice daily x 18 days or PO x 5, parentheses mark 30% or more (significant)) | anti-inflammatory effect in Acute Phase, in words ([9]; right hind paw, summary of Table 2) | % Inhibition relative to vehicle treated, Day (14-0) ([6]; Delayed Phase, contralateral ankle joint/left hind paw volume, parentheses mark 30% or more) | % Inhibition relative to vehicle treated, Day (18-14) ([6]; Delayed Phase, contralateral left hind paw volume) | % Inhibition relative to vehicle treated, Day (18-0) ([6]; Delayed Phase, contralateral left hind paw volume, parentheses mark 30% or more)
O=C(O)CCCc1ccccc1 [phenylbutyrate, 4-phenylbutyrate] | upregulated | induce upregulation of p16 and p21 | induce an accumulation of acetylated histones | only small amount of TNF-α was stained in the skin | dose- and time- dependent growth inhibition | not significant | pannus formation is blocked | millimolar concentrations | – | – | – | – | – | – | – | –
C[C@]12CCC(=O)C=C1CC[C@@H]1[C@@H]2[C@@H](O)C[C@@]2(C)[C@H]1CC[C@]2(O)C(=O)CO [Hydrocortisone, hydrocortisone] | – | – | – | – | – | partially shown | – | – | (35) % | (39) % | 23% | (35) % | marked inhibition effect of hydrocortisone is shown on day 1; however, the effect reduces after day 10 | (30) % | 20% | 27%
CC(/C=C/C(=O)NO)=C\[C@@H](C)C(=O)c1ccc(N(C)C)cc1 [trichostatin A] | upregulates p16 expression | induce upregulation of p16 and p21 | induce an accumulation of acetylated histones | no TNF-α staining in soft tissues | dose- and time- dependent growth inhibition | not significant | – | submicromolar range | – | – | – | – | – | – | – | –
